Laboratory results reported in ChEMBL document CHEMBL1201862, “PubChem BioAssay data set” (2004).
One block for each compound: values may come before it. The source made the active and inactive calls. For most assays here, no stated cut-off is given here; in the data, actives have a measured IC50 and inactives only a lower limit.

Key:
[1] = target: G-protein coupled receptor 55 (Homo sapiens, UniProt Q9Y2T6); assay: GPR55 antagonists blocking LPI-driven arrestin recruitment, primary screen, imaging, U2OS, beta-arrestin-GFP, LPI agonist (AID 2013); type: functional;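 further: antagonist potency measured as reduced agonist-driven arrestin aggregation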
Chain of G-protein coupled receptor 55 (Q9Y2T6 whole entry): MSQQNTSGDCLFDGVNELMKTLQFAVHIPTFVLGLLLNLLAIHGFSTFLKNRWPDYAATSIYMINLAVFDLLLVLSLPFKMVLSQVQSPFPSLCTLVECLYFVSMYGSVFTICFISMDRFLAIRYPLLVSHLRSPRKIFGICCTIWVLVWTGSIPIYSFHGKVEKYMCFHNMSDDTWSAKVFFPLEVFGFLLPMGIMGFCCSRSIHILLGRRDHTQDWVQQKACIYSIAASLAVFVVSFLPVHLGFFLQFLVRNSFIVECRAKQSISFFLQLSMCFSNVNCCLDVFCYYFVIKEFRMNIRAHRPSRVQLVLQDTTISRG

[2] = target: DNA dC->dU-editing enzyme APOBEC-3G (Homo sapiens, UniProt Q9HC16); assay: Dose Response confirmation of small molecule APOBEC3G DNA Deaminase Inhibitors via a fluorescence-based single-stranded DNA deaminase assay. [Related pubchem assays (depositor defined):AID493012, AID493028]; type: functional
Chain of DNA dC->dU-editing enzyme APOBEC-3G (Q9HC16 whole entry): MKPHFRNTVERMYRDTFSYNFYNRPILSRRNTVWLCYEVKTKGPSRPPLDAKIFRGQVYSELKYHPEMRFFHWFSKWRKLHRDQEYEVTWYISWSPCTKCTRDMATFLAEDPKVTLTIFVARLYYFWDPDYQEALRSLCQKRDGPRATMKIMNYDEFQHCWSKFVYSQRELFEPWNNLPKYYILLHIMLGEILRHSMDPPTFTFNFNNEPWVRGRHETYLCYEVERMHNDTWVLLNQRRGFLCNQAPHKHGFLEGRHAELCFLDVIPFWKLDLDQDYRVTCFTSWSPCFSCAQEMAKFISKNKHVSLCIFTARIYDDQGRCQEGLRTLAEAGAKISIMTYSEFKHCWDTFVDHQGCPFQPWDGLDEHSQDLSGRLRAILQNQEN

[3] = HEp-2 cell cytotoxicity, dose response, cytotoxicity control for RSV inhibitor project, HTS (AID 2410); type: functional; details: human respiratory syncytial virus
CAAX prenyl protease 2 = CAAX prenyl protease 2 (Saccharomyces cerevisiae S288c, UniProt Q03530); type: biochemical
Chain of CAAX prenyl protease 2 (Q03530 whole entry): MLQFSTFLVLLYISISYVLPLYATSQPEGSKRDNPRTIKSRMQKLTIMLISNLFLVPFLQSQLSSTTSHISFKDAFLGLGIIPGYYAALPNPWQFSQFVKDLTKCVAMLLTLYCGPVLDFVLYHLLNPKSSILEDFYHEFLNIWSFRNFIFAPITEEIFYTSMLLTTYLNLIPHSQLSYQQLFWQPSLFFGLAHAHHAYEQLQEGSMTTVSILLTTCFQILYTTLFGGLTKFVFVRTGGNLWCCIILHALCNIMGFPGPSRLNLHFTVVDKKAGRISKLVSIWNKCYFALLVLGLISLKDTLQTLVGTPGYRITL

Tumor necrosis factor = Tumor necrosis factor (Homo sapiens, UniProt P01375); assay: TNFa-triggered NF-kB activation inhibitors, SAR follow-up, cell-based, revised (AID 2337); type: functional
Chain of Tumor necrosis factor (P01375 whole entry): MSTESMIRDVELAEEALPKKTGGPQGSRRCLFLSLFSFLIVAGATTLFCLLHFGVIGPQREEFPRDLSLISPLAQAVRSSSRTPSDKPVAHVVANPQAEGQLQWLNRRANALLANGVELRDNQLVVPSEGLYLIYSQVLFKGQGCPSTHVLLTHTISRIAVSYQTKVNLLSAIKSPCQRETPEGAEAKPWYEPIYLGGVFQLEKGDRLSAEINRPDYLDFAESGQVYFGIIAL

HEK293 = assay: cells; details: Homo sapiens;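 further: cells exposed to compound for 14 hours overnight before viability readout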
[4] = target: Nucleotide-binding oligomerization domain-containing protein 2 (Homo sapiens, UniProt Q9HC29); assay: PubChem AID 2334; type: functional
Chain of Nucleotide-binding oligomerization domain-containing protein 2 (Q9HC29 whole entry, the tested form may be a part): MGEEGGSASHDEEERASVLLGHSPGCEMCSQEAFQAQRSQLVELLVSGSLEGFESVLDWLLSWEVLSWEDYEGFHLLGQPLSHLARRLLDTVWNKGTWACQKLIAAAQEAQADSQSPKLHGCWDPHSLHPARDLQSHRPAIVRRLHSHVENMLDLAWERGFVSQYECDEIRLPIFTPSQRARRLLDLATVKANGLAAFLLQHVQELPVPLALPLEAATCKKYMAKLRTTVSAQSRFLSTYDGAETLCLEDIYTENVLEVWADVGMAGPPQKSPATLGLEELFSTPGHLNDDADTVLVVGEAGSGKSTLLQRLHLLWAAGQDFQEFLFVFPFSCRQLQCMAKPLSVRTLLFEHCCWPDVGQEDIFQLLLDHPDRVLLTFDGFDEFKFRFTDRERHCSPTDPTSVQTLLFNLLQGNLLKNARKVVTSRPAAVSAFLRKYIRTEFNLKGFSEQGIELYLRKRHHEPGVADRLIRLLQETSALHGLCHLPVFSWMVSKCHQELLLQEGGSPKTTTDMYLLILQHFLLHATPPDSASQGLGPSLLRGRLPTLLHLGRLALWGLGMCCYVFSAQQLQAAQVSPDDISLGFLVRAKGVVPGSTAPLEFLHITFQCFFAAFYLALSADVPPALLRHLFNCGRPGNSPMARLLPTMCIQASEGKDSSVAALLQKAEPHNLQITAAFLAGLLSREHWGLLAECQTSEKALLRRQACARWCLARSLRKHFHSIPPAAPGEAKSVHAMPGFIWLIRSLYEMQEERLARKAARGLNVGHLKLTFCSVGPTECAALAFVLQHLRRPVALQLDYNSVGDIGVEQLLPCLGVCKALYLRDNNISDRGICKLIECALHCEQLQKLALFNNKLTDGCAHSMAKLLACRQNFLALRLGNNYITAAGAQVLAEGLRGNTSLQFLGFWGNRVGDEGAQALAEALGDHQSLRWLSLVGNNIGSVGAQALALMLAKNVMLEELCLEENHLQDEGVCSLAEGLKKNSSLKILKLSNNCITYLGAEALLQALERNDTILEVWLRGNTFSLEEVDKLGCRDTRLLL

[5] = target: T1, Nucleotide-binding oligomerization domain-containing protein 1 (Homo sapiens, UniProt Q9Y239); assay: NOD1 signaling inhibitors, SAR follow-up, revised (AID 2333); type: functional
T1 sequence (Q9Y239 whole entry): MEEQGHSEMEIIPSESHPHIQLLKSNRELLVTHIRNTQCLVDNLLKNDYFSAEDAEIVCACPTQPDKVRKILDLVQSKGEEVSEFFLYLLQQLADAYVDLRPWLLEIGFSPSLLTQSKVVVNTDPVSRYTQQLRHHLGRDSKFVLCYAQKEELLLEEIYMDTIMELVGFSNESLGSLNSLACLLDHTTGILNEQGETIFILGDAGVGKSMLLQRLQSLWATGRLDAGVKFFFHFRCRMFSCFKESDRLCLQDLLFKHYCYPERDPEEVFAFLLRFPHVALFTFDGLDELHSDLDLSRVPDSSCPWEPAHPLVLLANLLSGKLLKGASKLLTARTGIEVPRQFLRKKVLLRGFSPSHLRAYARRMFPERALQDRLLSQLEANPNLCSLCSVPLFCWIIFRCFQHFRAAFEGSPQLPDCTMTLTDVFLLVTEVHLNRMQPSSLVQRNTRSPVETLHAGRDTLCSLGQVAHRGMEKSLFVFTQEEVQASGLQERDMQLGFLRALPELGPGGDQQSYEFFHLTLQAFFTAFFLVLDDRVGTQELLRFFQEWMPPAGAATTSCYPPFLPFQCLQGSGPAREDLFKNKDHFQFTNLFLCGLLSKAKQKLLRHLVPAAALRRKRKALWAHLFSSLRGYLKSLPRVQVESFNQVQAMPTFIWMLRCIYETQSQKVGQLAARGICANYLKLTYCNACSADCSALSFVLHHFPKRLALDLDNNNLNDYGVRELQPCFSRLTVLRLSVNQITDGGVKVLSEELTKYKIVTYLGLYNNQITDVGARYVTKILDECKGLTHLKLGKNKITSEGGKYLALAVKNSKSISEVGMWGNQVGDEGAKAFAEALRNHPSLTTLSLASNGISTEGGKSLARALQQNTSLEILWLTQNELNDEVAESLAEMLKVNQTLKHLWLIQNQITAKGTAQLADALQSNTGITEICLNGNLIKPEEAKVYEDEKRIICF

[6] = target: T2, Tyrosine-protein phosphatase non-receptor type 7 (Homo sapiens, UniProt P35236); assay: redox-dependent HePTP inhibition, mechanism study, biochemical, fluorescence (AID 2068); type: functional
T2 sequence (P35236 whole entry): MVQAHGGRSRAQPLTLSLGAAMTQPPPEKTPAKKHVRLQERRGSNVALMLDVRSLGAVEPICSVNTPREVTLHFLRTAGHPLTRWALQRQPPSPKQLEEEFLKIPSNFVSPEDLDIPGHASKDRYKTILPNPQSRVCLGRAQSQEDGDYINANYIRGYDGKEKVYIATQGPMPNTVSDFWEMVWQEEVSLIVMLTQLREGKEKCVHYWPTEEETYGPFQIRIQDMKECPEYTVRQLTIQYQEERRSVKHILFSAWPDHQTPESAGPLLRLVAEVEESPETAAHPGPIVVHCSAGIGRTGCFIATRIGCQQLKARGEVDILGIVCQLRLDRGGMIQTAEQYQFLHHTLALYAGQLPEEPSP

SMILES: c1ccc(-c2nn3c(Cn4cnc5ccccc54)nnc3s2)cc1
IC50 [2]: > 100 µM (inactive) | CC50 [3]: 42.6 µM (active) | IC50 (cells): 5.46 µM (active)

SMILES: O=C(Nc1nc2ccccc2n1Cc1ccc(Cl)cc1)c1ccccc1
IC50 (Tumor necrosis factor): > 20 µM (inactive) | IC50 (HEK293): > 20 µM (inactive) | IC50 [4]: > 20 µM (inactive) | IC50 [5]: > 20 µM (inactive)

SMILES: Cc1ccc2cccc(N=Cc3c(C)[nH]n(-c4ccccc4)c3=O)c2n1
IC50 (Tumor necrosis factor): > 20 µM (inactive) | IC50 (HEK293): > 20 µM (inactive) | IC50 [4]: > 20 µM (inactive) | IC50 [5]: > 20 µM (inactive)

Results, then the compound that gave them:

IC50 [1]: 3.01 µM (active)
SMILES: CCCCOc1ccccc1NC(=O)c1scc2c1OCCO2

AC50 (CAAX prenyl protease 2): 18 µM (active)
SMILES: COc1ccc(-c2ccc3oc(-c4ccc(OC)cc4)c(-c4ccc(OC)cc4)c3c2)cc1

IC50 [6]: 575 nM (active)
SMILES: O=C(Nc1ccccc1)Nc1ccc2nc(-c3ccco3)c(-c3ccco3)nc2c1

IC50 [1]: 3.59 µM (active)
SMILES: C#CCOc1c(Br)cc(/C=N\NC(=O)CN2CCOCC2)cc1OCC
